Results reported in patent US10383841B2, “Antimicrobial and antiinflammatory composition” (Denovastella AB, priority 2005, dated 2019).

How the values were obtained:
Type in all cases: cell-based
[1] = tested on: all microorganisms (five Malassezia strains, Candida albicans, Staphylococcus aureus); test: Agar dilution method, summary over all microorganisms
Description: (§1) The five strains of Malassezia were CBS7019 M. Furfur, CBS 1871 M. Pachydermatis, CBS7956 M. Slooffiae, CBS7966 M. Globosa and 42132 M. Sympodialis. The Staphylococcus aureus strain and Candida albicans H29 strain (grown on mycobiotic plates). Malassezias were cultured on PO plates and kept in room temperature. Candida albicans were grown on mycobiotic plates at room temperature. Preceding the first experiment the yeasts were reinoculated and stored for five days in a 32° C. thermostat. Afterwards they were continually reinoculated every week to ensure viable strains. S. aureus were refrigerated and reinoculated on a horse blood plate and incubated for one day in 37° C. before being included in any study.
(§2) DST-TG-agar (diagnostic sensitivity test agar) with a glycerol monostearate and tween content to meet the growth requirements of the Malassezias was used. […] The agar was obtained from the Microbiological Laboratories, Sahlgrenska, Gothenburg, Sweden. When received the agar was in a liquid form requiring storage at 55° C.
(§3) The oil extract from example 1 were diluted in DMF (dimethyl formamide) producing a stock solution with 20% extract and 80% DMF. A secondary stock solution was made by diluting a decided volume of the first stem solution in PBS. Finally the solutions were mixed with the soluble agar to obtain concentrations of the extract of 1, 0.5, 0.25, 0.125, 0.0625, 0.05, 0.025 and 0.0125% in the agar. Since the ethanol extract readily dissolved with the agar no emulsifier was needed. The ethanol extract was diluted directly with the agar to obtain concentrations of the extraxt of 1, 0.5, 0.125, 0.1, 0.05, 0.0125, 0.01 and 0.005% in the agar. No precipitations or supernatants were observed.
Microbes were harvested and suspended into PBS and manually counted in Barker chambers to receive concentrations of 10^7 cells/ml for the Malassezias and 10^5 cells/ml for the Staphylococci and Candida. […]
(§4) Plates were incubated in 37° C. for approximately 3 days and then read.

[2] = tested on: M. slooffiae CBS7956; test: Agar dilution method, MIC
Description: as §1, §2, §3
(§5) Microbes were harvested and suspended into PBS and manually counted in Barker chambers to receive concentrations of 10^7 cells/ml for the Malassezias and 10^5 cells/ml for the Staphylococci and Candida. Due to poor growth of M. globosa, M. slooffiae and emulsions were modified to contain 10^8 cells/ml in the third experiment.
(§6) Using a Pasteur micropipette, plates were inoculated with 20 μl of emulsion. Plates were inoculated with either three or four microorganisms. Control plates containing only agar and plates with mirrored concentration series of DMF and ethanol were made. Additionally, all plates had paralleled controls.
as §4

[3] = tested on: M. globosa CBS7966; test: Agar dilution method, MIC
Description: as §1, §2, §3, §5, §6, §4

[4] = tested on: M. pachydermatis CBS 1871; test: Agar dilution method, MIC
Description: as §1, §2, §3, §5, §6, §4

[5] = tested on: M. sympodialis 42132; test: Agar dilution method, MIC
Description: as §1, §2, §3, §5, §6, §4

[6] = tested on: Staphylococcus aureus; test: Agar dilution method, MIC
Description: as §1, §2, §3, §5, §6, §4

[7] = tested on: Candida albicans H29; test: Agar dilution method, MIC
Description: as §1, §2, §3, §5, §6, §4

[8] = tested on: M. furfur CBS7019; test: Agar dilution method, MIC
Description: as §1, §2, §3, §5, §6, §4

[9] = Experiment II, agar control: poor growth
[10] = Experiment II, — = no MIC up to maximum titre of that line (Cineole 0.125%, DNS in ethanol 2.5% 0.025%)

MIC spread ([1]; over the microorganisms)	MIC [2, 9]	MIC [3, 9]	MIC [4, 10]	MIC [5, 10]	MIC [6, 10]	MIC [7, 10]	MIC [8, 10]	highest attained MIC of studied substances [1]	nearly all MICs ([1]; subsequent experiment, four times the initial value)	MIC ([2]; Experiment III, 10^8 cells/ml)	MIC ([3]; Experiment III, 10^8 cells/ml)	MIC ([3]; Experiment III, 10^8 cells/ml, listed as 1,8-cineole)	MIC ([4]; Experiment III)	MIC ([5]; Experiment III)	MIC ([6]; Experiment III)	MIC ([7]; Experiment III)	MIC ([8]; Experiment III)	Compound
0.0125-0.125%	0.0125%	0.025%	0.0625%	0.0125%	0.125%	0.0625%	0.0625%											C=CC1(C)CCC(C(C)C(=O)CC=C(C)C)O1 (stereo not drawn) [Davanone, davanone]
	0.125%	0.125%	0.125%	0.0625%		0.125%	0.125%	0.5%	0.5%	0.500%	1.000%	1.0%	0.500%	0.500%	0.500%	0.500%	0.500%	CC12CCC(CC1)C(C)(C)O2 [Cineole, 1,8-cineole]
